Data on four molecules can be found in patent publication US9889145B2, “Methods to treat infections” (priority 2013, dated 2018).

One data set has as its system arginase. In words: Quantitative assay for urea in lungs of Bt-infected mice (indirect measurement of Arg activity). In kind it is in vivo. The following applies: 80 mg/kg Celecoxib vs mock-treated Bt-infected mice.
The next data set concerns B. thailandensis. Also noted: species or system Burkholderia thailandensis. The following applies: in vivo.
The subject of data set [1] is BALB/c mice infected with B. thailandensis. The following applies: mouse, in vivo.
Data set [2] has as its system Arg2. In words: Arg2 in lung and liver of Bt-infected mice (Western blot, immunohistochemical staining). The format is in vivo. For orientation: Immunoblotting shows a protein as a band on a membrane.
The subject of a further data set is IL-1α, IL-6 and KC. In words: IL-1α, IL-6 and KC in the lungs of Bt-infected mice. The following applies: 80 mg/kg Celecoxib vs mock; 48 hours post-infection with Bt. In kind it is in vivo.
The test system of data set [3] is PGE-2. Set-up: species or system mice. The following applies: mouse, in vivo.
Data set [4] deals with NO. The format is cell-based, mice.
Data set [5] concerns Arg2. Also noted: species or system mice. The following applies: mouse, in vivo, 15 mg/kg.
Data set [6] deals with PGE-2. The format is in vivo, mice. The following applies: n=2.
Data set [7] relates to iNOS. In kind it is cell-based, mice. The following applies: 4 hours.
In data set [8] the test system is B. pseudomallei. The format is in vivo, Burkholderia pseudomallei. The following applies: n=2.
The test system of data set [9] is NO. In kind it is cell-based, mice. The source holds these as a separate data set.
Data set [10] has as its system Arg2. The format is cell-based, mice.
For data set [11], the system named is B. pseudomallei. In kind it is cell-based, Burkholderia pseudomallei.
For data set [12], the system named is Burkholderia thailandensis (Bt). The format is cell-based.
Data set [13] concerns PGE-2. In kind it is cell-based, murine.
For data set [14] the following is noted: daily maximum dose of 15 mg/kg in mice, cited from earlier work.
In data set [15] the test system is Burkholderia pseudomallei strain 1026b. The format is in vivo.
The test system of data set [16] is iNOS. The format is cell-based.
The next data set deals with CD4+ T-cells. The data set can be described thus: IFN-γ and IL-2 production by stimulated CD4+ T-cells. In kind it is cell-based, mice. The following applies: low dose (100 pg/ml) or high dose (10,000 pg/ml) PGE-2; Day 6; vs stimulated.

Each structure is given as a SMILES string. “Also recorded” adds a separate entry of the source.

On to `Cc1ccc(-c2cc(C(F)(F)F)nn2-c2ccc(S(N)(=O)=O)cc2)cc1` [Celecoxib, 4-[5-(4-methylphenyl)-3-(trifluoromethyl)pyrazol-1-yl]benzenesulfonamide], for which the “urea levels in the lungs” value with arginase was “lower”. In the data set on B. thailandensis, the “bacterial burden in liver” value was “reduction in bacterial burdens”, the “bacterial burden in lung” value is on record as “reduction in bacterial burdens” and the “bacterial burden in spleen” value was “reduction in bacterial burdens”. Further, the “lung inflammation (histological examination)” value in data set [1] is “reduced”. Further, the “number of Arg2 positively-stained cells in lungs (immunohistochemical staining)” value in the data set on Arg2 [2] (80 mg/kg Celecoxib vs mock-treated Bt-infected mice) is reported as “reduction in the number of Arg2 positively-stained cells”. Besides, the “Arg2 in the lungs (Western blot)” value in the data set on Arg2 [2] (80 mg/kg Celecoxib vs mock-treated mice, 48 hours after pulmonary Bt infection) was “reduction in Arg2 in the lungs”. Further, in the data set on IL-1α, IL-6 and KC, the “IL-1α in the lungs” value is reported as “reduced”, the “IL-6 in the lungs” value was “reduced” and the “KC in the lungs” value is recorded as “reduced”. Also, in the data set on PGE-2 [3], the “PGE-2 in the lungs (ELISA)” value is “PGE-2 reduction”.
Regarding `CS(=O)(=O)Nc1ccc([N+](=O)[O-])cc1OC1CCCCC1` [NS398, N-[2-(cyclohexyloxy)-4-nitrophenyl]-methanesulfonamide], the NO production result in the data set on NO [4] is reported as “higher production of NO”. Moreover, in the data set with Arg2 [5], the “Arg2 expression in lungs (Western blot, densitometry)” value was “decreases”. In the data set with PGE-2 [6], the “PGE-2 concentration in lung tissue” value is recorded as “reduce PGE-2 concentration in lung tissue” and the “PGE-2 concentration in stomach tissue” value is “reduce PGE-2 concentration in stomach tissue”. Further, in the data set with iNOS [7], the “iNOS mRNA expression” value is recorded as “no differences in iNOS mRNA expression; also recorded: did not observe any apparent change in iNOS mRNA expression”. In the data set on B. pseudomallei [8], the “growth of B. pseudomallei in lung tissue (CFU/mg)” value is given as “suppresses the growth of B. pseudomallei in lung tissue” and the “growth of B. pseudomallei in stomach tissue (CFU/mg)” value was “suppresses the growth of B. pseudomallei in stomach tissue”. The “NO production (nitrite)” value in the data set with NO [9] is listed as “higher production of NO; also recorded: increase in nitrite”. In the data set with Arg2 [10], the Arg2 expression result is “reduction in Arg2 expression”. Besides, in the data set on B. pseudomallei [11], the Bps intracellular survival entry was “reduction in Bps survival; also recorded: enhanced intracellular killing of B. pseudomallei”. Also, the “survival of intracellular Bt” value in data set [12] is on record as “decrease in survival of intracellular bacteria”. Besides, the “PGE-2 levels in supernatants” value in the data set on PGE-2 [13] is “reduced”. Besides, in data set [14] (previously documented pharmacological efficacy), the “lung PGE-2” value is “reducing lung PGE-2”. For the same molecule, in data set [14] (previously documented), the associated toxicity entry is “without any associated toxicity”. Also, in [15] (in vivo), the “bacteria recovered from the lungs at the study endpoint” value was “No bacteria were recovered”; the “bacteria recovered from the lungs of the two animals euthanized on day 5 and day 7 (hind leg paralysis)” value is “No bacteria were recovered”; the “colonization of spleen and liver” value is on record as 20-100 cfu; the “first signs of illness” value was at least 5. For the same molecule, in data set [15] (in vivo), the “lung bacteria of the one exceptional animal at the study endpoint” value is listed as 104 cfu and the “weight loss throughout the study” value was “no evidence of weight loss”. In addition, in data set [15] (n=8), the “survival / recovery over 10 days” value was “appeared to have recovered from the infection; also recorded: protection against lethal pulmonary melioidosis”. Besides, the iNOS expression result in the data set on iNOS [16] is recorded as “two-fold increase in iNOS expression”.
As for `CCCCC[C@H](O)/C=C/[C@H]1[C@H](O)CC(=O)[C@@H]1C/C=C\CCCC(=O)O` [PGE-2], the “NO levels after adding PGE-2” value with NO [4] was “reduced NO levels”. Moreover, in the data set with CD4+ T-cells, the “IFN-gamma production by stimulated CD4+ T-cells” value is reported as “reduces” and the “IL-2 production by stimulated CD4+ T-cells” value is listed as “reduces”. Moreover, the “iNOS mRNA expression” value with iNOS [7] is given as “no differences in iNOS mRNA expression; also recorded: did not observe any apparent change in iNOS mRNA expression”. Further, in the data set on NO [9], the “NO (nitrite) levels after adding PGE-2” value is on record as “reduced NO levels; also recorded: reduced nitrite levels”. Further, in the data set on Arg2 [10], the “increase in Arg2 expression” value is listed as 376 fold.
Regarding `N=C(NO)NCC[C@H](N)C(=O)O` [nor-NOHA, nor-N^ω-hydroxy-L-arginine], in the data set on NO [4], the NO levels entry was “increase in NO levels”. The “NO (nitrite) levels” value in the data set on NO [9] is on record as “increase in NO levels; also recorded: increase in nitrite levels”. Further, the Bps intracellular survival result in the data set with B. pseudomallei [11] is given as “decrease in B. pseudomallei intracellular survival”. For the same molecule, the Bt intracellular survival entry in [12] is given as “decrease”.
